Tests used:
Experiment in all cases: relative viability (nuclei count vs DMSO), 5 days (fraction); higher = more cells survive
Alpelisib + Pictilisib = compound: Cc1nc(NC(=O)N2CCC[C@H]2C(N)=O)sc1-c1ccnc(C(C)(C)C(F)(F)F)c1 [Alpelisib] + CS(=O)(=O)N1CCN(Cc2cc3nc(-c4cccc5[nH]ncc45)nc(N4CCOCC4)c3s2)CC1 [Pictilisib] (partner 1 µM)
Summary of the method: (§1)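 Relative viability divides the nuclei count in treated wells by that in vehicle wells. Lung cancer cell lines were seeded in 1536-well plates, dosed by pin tool the next day, and fixed and stained after 5 days in one step with final 0.05% Triton X-100, 1% formaldehyde and 1 ug/ml Hoechst. Dosing was a single drug or a fixed anchor-drug dose plus five library-drug doses (not always all listed) in √10 steps, and values are medians of duplicate plates imaged at 4×.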

Alpelisib + Palbociclib = compound: Cc1nc(NC(=O)N2CCC[C@H]2C(N)=O)sc1-c1ccnc(C(C)(C)C(F)(F)F)c1 [Alpelisib] + CC(=O)c1c(C)c2cnc(Nc3ccc(N4CCNCC4)cn3)nc2n(C2CCCC2)c1=O [Palbociclib] (partner 0.5 µM)
Summary of the method: as §1

OSI-027 + Crizotinib = compound: COc1cccc2cc(-c3nc([C@H]4CC[C@H](C(=O)O)CC4)n4ncnc(N)c34)[nH]c12 [OSI-027] + C[C@@H](Oc1cc(-c2cnn(C3CCNCC3)c2)cnc1N)c1c(Cl)ccc(F)c1Cl [Crizotinib] (partner 1 µM)
Summary of the method: as §1

Alpelisib + Tozasertib = compound: Cc1nc(NC(=O)N2CCC[C@H]2C(N)=O)sc1-c1ccnc(C(C)(C)C(F)(F)F)c1 [Alpelisib] + Cc1cc(Nc2cc(N3CCN(C)CC3)nc(Sc3ccc(NC(=O)C4CC4)cc3)n2)n[nH]1 [Tozasertib] (partner 0.1 µM)
Summary of the method: as §1

Cell Line	relative viability (Alpelisib + Pictilisib; first compound 0.04 µM)	relative viability (Alpelisib + Pictilisib; first compound 0.1265 µM)	relative viability (Alpelisib + Pictilisib; first compound 0.4 µM)	relative viability (Alpelisib + Pictilisib; first compound 1.265 µM)	relative viability (Alpelisib + Pictilisib; first compound 4 µM)	relative viability (Alpelisib + Palbociclib; first compound 0.04 µM)	relative viability (Alpelisib + Palbociclib; first compound 0.1265 µM)	relative viability (Alpelisib + Palbociclib; first compound 0.4 µM)	relative viability (Alpelisib + Palbociclib; first compound 1.265 µM)	relative viability (Alpelisib + Palbociclib; first compound 4 µM)	relative viability (OSI-027 + Crizotinib; first compound 0.01 µM)	relative viability (OSI-027 + Crizotinib; first compound 0.03162 µM)	relative viability (OSI-027 + Crizotinib; first compound 0.1 µM)	relative viability (OSI-027 + Crizotinib; first compound 0.3162 µM)	relative viability (OSI-027 + Crizotinib; first compound 1 µM)	relative viability (Alpelisib + Tozasertib; first compound 0.04 µM)	relative viability (Alpelisib + Tozasertib; first compound 0.1265 µM)	relative viability (Alpelisib + Tozasertib; first compound 0.4 µM)	relative viability (Alpelisib + Tozasertib; first compound 1.265 µM)	relative viability (Alpelisib + Tozasertib; first compound 4 µM)
HCC-44	0.669	0.654	0.822	0.491	0.441	0.98	0.921	0.988	0.881	0.913	0.819	0.794	0.817	0.737	0.343	0.883	0.935	1.11	0.376	0.607
HCC-78	0.21	0.187	0.218	0.222	0.228	0.521	0.545	0.479	0.459	0.43	0.289	0.322	0.33	0.274	0.185	0.411	0.318	0.504	0.401	0.292
HCC-366	0.151	0.137	0.196	0.11	0.222	0.421	0.356	0.36	0.247	0.162	0.817	0.315	0.52	0.415	0.119	0.151	0.117	0.13	0.0701	0.0516
HCC-827	0.887	1.18	0.933	0.973	0.651	0.509	0.489	0.485	0.41	0.386	0.924	0.969	0.915	1.01	0.649	0.462	0.409	0.508	0.398	0.366
HOP-62	1.06	0.698	0.988	0.586	0.727	0.43	0.425	0.508	0.309	0.417	1.02	0.922	0.999	1.36	0.428	0.328	0.374	0.465	0.322	0.292
IA-LM	0.265	0.412	0.432	0.335	0.327	–	–	–	–	–	0.96	0.578	0.78	0.249	0.139	–	–	–	–	–
LC-2-ad	0.443	0.435	0.434	0.296	0.415	0.547	0.47	0.467	0.404	0.409	0.49	0.483	0.458	0.474	0.384	0.377	0.372	0.431	0.307	0.348
LCLC-97TM1	0.178	0.175	0.179	0.195	0.21	0.206	0.177	0.183	0.119	0.0948	0.246	0.407	0.322	0.267	0.105	0.206	0.176	0.178	0.146	0.117
LCLC-103H	0.721	0.695	0.506	0.56	0.526	0.451	0.489	0.457	0.427	0.37	1.07	1.03	1.18	0.948	1.01	0.462	0.448	0.482	0.357	0.37
LK-2	0.531	0.571	0.643	0.524	0.578	0.653	0.645	0.499	0.322	0.314	0.199	0.229	0.273	0.242	0.203	0.158	0.164	0.179	0.167	0.154
NCI-H522	–	–	–	–	–	0.993	0.752	0.87	0.944	0.657	–	–	–	–	–	0.519	0.558	0.527	0.47	0.37
NCI-H596	0.404	0.413	0.362	0.399	0.358	–	–	–	–	–	0.946	1.07	1.05	0.838	0.734	0.859	0.893	0.86	0.56	0.374
NCI-H1299	0.871	0.76	0.793	0.796	0.599	–	–	–	–	–	0.994	0.984	0.937	1.04	0.937	–	–	–	–	–
NCI-H1395	0.493	0.673	0.663	0.615	0.492	0.634	0.651	0.649	0.475	0.589	–	–	–	–	–	0.823	0.695	0.743	0.616	0.735
NCI-H1563	0.647	0.734	0.67	0.613	0.676	–	–	–	–	–	0.835	0.894	0.768	0.701	0.733	–	–	–	–	–
NCI-H1623	–	–	–	–	–	–	–	–	–	–	–	–	–	–	–	0.446	0.338	0.388	0.347	0.29
NCI-H1648	–	–	–	–	–	0.259	0.304	0.241	0.234	0.237	–	–	–	–	–	–	0.68	0.607	0.27	0.22
NCI-H1703	0.254	0.249	0.227	0.235	0.26	–	–	–	–	–	0.753	0.591	0.595	0.672	0.374	–	–	–	–	–
NCI-H1792	0.227	0.306	0.309	0.253	0.206	0.631	0.62	0.658	0.508	0.321	1.06	0.617	1.01	0.902	0.199	–	–	–	–	–
NCI-H1793	0.363	0.486	0.432	0.328	0.314	0.367	0.287	0.332	0.324	0.245	–	–	–	–	–	0.275	0.383	0.312	0.169	0.188
NCI-H2342	–	–	–	–	–	0.57	0.509	0.518	0.467	0.414	–	–	–	–	–	0.419	0.473	0.389	0.401	0.367
SW 900	–	–	–	–	–	0.536	–	0.706	0.483	0.49	–	–	–	–	–	0.734	0.5	0.88	0.571	0.358

Source: the supplement of paper PMC10307832
